Consider 13 compounds from PubChem BioAssay (NCI).

Each structure is given as a SMILES string. Several values for one entry are separate records, joined by “and”; a condition that tells them apart may be missing. Identical values can stand only once.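 Compound exposure: 48 hours, 5 concentrations, 96-well plates. GI50 marks 50% less growth. TGI: total growth inhibition.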 Where a SMILES comes first, the peptide text is derived from it. [ ]: non-standard residue; d: D form. The star is where a group is joined. ξ: configuration not given here. X6 = FC(F)(F)c1cc(NC(=S)*)cc(C(F)(F)F)c1; ξF = NC(Cc1ccccc1)C(=O)O

Holding throughout (test): DTP human tumour cell line panel, 48 h
Assay [1] concerns NCI-H522 lung.
Assay [2] has as its system HCT-116 colon.
Assay [3] concerns HL-60(TB) leukemia.
The test system of assay [4] is RXF 393 renal.
The subject of assay [5] is SK-MEL-28 melanoma.
For assay [6], the system named is HOP-92 NSCLC.
Assay [7] relates to LOX IMVI melanoma.
In assay [8] the test system is MCF7 breast.
For assay [9], the system named is KM12 colon.
The test system of assay [10] is SR leukemia.

The term TGI denotes the concentration at which net growth stops. High values mean less potent growth arrest, low ones more potent growth arrest. As a reminder, the GI50 is the concentration at which growth is held to half of that of the control.

Take `O=C(CC1(O)C(=O)Nc2c(Cl)cc(Cl)cc21)c1ccc(Br)cc1Br` (stereo not given): the concentration for total growth inhibition (TGI) in [1] stood at 8.05 µM; in [2], 15.2 µM; in assay [3], 18.1 µM; in assay [4] it was 26.2 µM; in [5], 27.7 µM; in assay [6] it was 9.75 µM. The total growth inhibition concentration (TGI) was 15 µM in [7], 29.6 µM in assay [8], 27.9 µM in assay [9] and more than 22 µM in assay [10].

For `COc1ccc2c(c1)/C(=C/c1c(C)nc3sc(C)nn13)C(=O)N2`, the GI50 in assay [1] was 0.574 µM; in assay [2] it was 1.77 µM; in assay [3], 0.663 µM; in assay [4], 17.6 µM; in assay [5], 5.29 µM; in [6] it was 9.86 µM. In addition, the GI50 in assay [7] was 5.49 µM; in [8], 1.61 µM; in assay [9] it was 0.42 µM; in assay [10] it was 0.31 µM. Further, the TGI in assay [1] was 5.93 µM; in assay [2], more than 100 µM; in assay [4] it was more than 100 µM; in assay [5] it was more than 100 µM; in assay [6], more than 77.8 µM; in [7] it was more than 100 µM. In addition, the total growth inhibition concentration (TGI) is more than 100 µM in assay [8] and more than 54.6 µM in assay [9].

As to `O=C(/C=C/C12c3ccccc3C(c3ccccc31)C1C(=O)NC(=O)C12)c1ccncc1` (stereo not given), the GI50 was 1.61 µM in assay [1]; 1.58 µM in [2]; 1.76 µM in [3]; 1.74 µM in [4]; 2.1 µM in assay [5]; 1.94 µM in assay [6]. Further, the GI50 in assay [7] was 1.68 µM; in assay [8] it was 2.25 µM; in [9] it was 1.85 µM; in assay [10], 1.76 µM. Further, the total growth inhibition concentration (TGI) was determined as 3.74 µM in assay [1]; 4.31 µM in assay [2]; 6.1 µM in [3]; 3.27 µM in [4]; 4.57 µM in assay [5]; 6.27 µM in assay [6]. Moreover, the concentration for total growth inhibition (TGI) in [7] worked out at 3.51 µM; in [8] it was 12.6 µM; in assay [9] it was 4.42 µM; in assay [10], 7.34 µM.

Consider `Clc1ccc2c(NCCCCNc3nc(N4CCCCC4)nc4ccccc34)ccnc2c1`, for which the GI50 is 2.04 µM in assay [1]; 1.2 µM in assay [2]; 1.76 µM in [3]; 1.66 µM in [4]; 1.89 µM in assay [5]; 1.56 µM in assay [6]. In addition, the GI50 in assay [7] is 1.5 µM; in assay [8], 2.52 µM; in [9], 3.4 µM; in [10], 0.408 µM. Further, the total growth inhibition concentration (TGI) in assay [1] worked out at 5.3 µM; in assay [2], 3.06 µM; in assay [3] it was 3.52 µM; in [4], 3.37 µM; in assay [5], 3.82 µM; in assay [6], 3.39 µM. The TGI in assay [7] amounted to 3.14 µM; in [8] it was 10.8 µM; in assay [9] it was 13.1 µM; in assay [10], 2.88 µM.

For the compound `COC(=O)[C@@H](NC(=O)CNC(=O)[C@H]1CCCN1C(=O)C(Cc1ccccc1)NC(=S)Nc1cc(C(F)(F)F)cc(C(F)(F)F)c1)C(C)C` (stereo not given in full) (X6-[ξF][dP]GV-OMe), the GI50 in assay [1] is 3.04 µM; in [2], 3.34 µM; in [3] it was 3.58 µM; in [4] it was 1.95 µM; in [5], 1.84 µM; in [6] it was 1.95 µM. Besides, the GI50 was 2.25 µM in [7], 2.86 µM in assay [8], 2.88 µM in assay [9] and 2.57 µM in [10]. Further, the concentration for total growth inhibition (TGI) was found to be 8.65 µM in assay [1]; 10.7 µM in assay [2]; 12.7 µM in [3]; 3.5 µM in assay [4]; 3.38 µM in [5]; 6.37 µM in assay [6]. Further, the TGI came out at 5.55 µM in assay [7], 11.3 µM in [8], 7.75 µM in assay [9] and 8.58 µM in [10].

`COC1=CC(c2ccc[nH]2)=N/C1=C\c1[nH]c(C)c(C(=O)OC(C)C)c1C`: the GI50 in assay [1] was 0.0445 µM; in assay [2], 0.0274 µM; in assay [3], 0.0551 µM; in assay [4] it was 0.0584 µM; in assay [5], 0.216 µM; in assay [6], 0.0239 µM. Further, the concentration for 50% growth inhibition (GI50) in assay [7] is 0.0163 µM; in assay [8], 0.0487 µM; in assay [9] it was 0.0439 µM; in assay [10], 0.0257 µM. Moreover, the total growth inhibition concentration (TGI) is 0.637 µM in assay [1]; 1.07 µM in [2]; 2.89 µM in assay [3]; 1.03 µM in assay [4]; 1.95 µM in [5]; 0.0815 µM in assay [6]. Further, the TGI in [7] amounted to 0.0372 µM; in assay [8], 1.9 µM; in [9] it was 1.8 µM; in assay [10], 0.291 µM.

For `CCOC(=O)[C@]1(OC(C)=O)C[C@H](OC(C)=O)[C@@H](C(F)COP(=O)(OCc2ccccc2)OCc2ccccc2)O1` (stereo not given in full), the GI50 in assay [1] is 28.3 µM and > 100 µM; in assay [2] it was 23.4 µM and > 100 µM; in assay [3], 31.9 µM and > 100 µM; in assay [4], 24.5 µM and > 100 µM; in [7], 29.4 µM and > 100 µM; in [8], 20.8 µM and > 100 µM. The GI50 in [9] was 19.3 µM and > 100 µM; in assay [10] it was 30.2 µM and > 100 µM. Also, the total growth inhibition concentration (TGI) in assay [1] is 93.7 µM and > 100 µM; in assay [2] it was 57.9 µM and > 100 µM; in assay [3], 86.6 µM and > 100 µM; in assay [4], 68.2 µM and > 100 µM; in assay [5], more than 100 µM; in assay [6] it was 34.5 µM. For the same compound, the concentration for total growth inhibition (TGI) in assay [7] was more than 100 µM; in assay [8], 45.6 µM and > 100 µM; in assay [9], 41.2 µM and > 100 µM; in [10], more than 100 µM.

On to `COC1=CC(=O)c2nc(-c3ccncc3)[nH]c2C1=O`, for which the GI50 in assay [1] was more than 100 µM; in assay [2], more than 100 µM; in assay [3], more than 100 µM; in assay [4] it was more than 100 µM; in assay [5], more than 100 µM; in [6], 31.4 µM. Besides, the GI50 in [7], in assay [8], in assay [9] and in assay [10] was more than 100 µM in each case. Further, the total growth inhibition concentration (TGI) in assay [1], in assay [2], in assay [3], in [4], in assay [5] and in assay [6] was more than 100 µM in each case. Further, the TGI in [7], in [8], in assay [9] and in assay [10] was more than 100 µM each time.

With `OCc1ccc(N2CCC2c2ccc(F)cc2)cc1Cl` (stereo not given), the GI50 is 20.9 µM in [1]; 0.481 µM in assay [2]; 18.5 µM in assay [3]; 11.6 µM in [4]; 28.7 µM in assay [5]; 3.14 µM in [6]. Besides, the GI50 in [7] was 22.5 µM; in assay [8], 0.69 µM; in assay [9], 24.3 µM; in assay [10], 22.6 µM. For the same compound, the concentration for total growth inhibition (TGI) in [1] is 55.9 µM; in assay [2], more than 38.2 µM; in [3] it was 51.8 µM; in assay [4] it was 30.4 µM; in assay [5] it was more than 100 µM; in assay [6], 25.1 µM. The TGI in assay [7] is 51.1 µM; in assay [8], 24.5 µM; in [9], more than 66.4 µM; in assay [10], 54.8 µM.

Regarding `CCCCCN(CCCCC)CC(O)c1cc(C)c2ccc3cc(C(C)C)ccc3c2c1` (stereo not given), the GI50 in assay [1] was 1.81 µM; in assay [2], 1.73 µM; in assay [3], 2.04 µM; in assay [4] it was 1.57 µM; in [5], 1.76 µM; in assay [6], 1.4 µM. The GI50 was 1.76 µM in assay [7], 1.75 µM in [8], 1.8 µM in assay [9] and 0.836 µM in [10]. Also, the TGI in assay [1] is 3.85 µM; in assay [2], 3.32 µM; in assay [3], 4.02 µM; in assay [4] it was 3.1 µM; in [5] it was 3.27 µM; in assay [6], 2.85 µM. Also, the concentration for total growth inhibition (TGI) in assay [7] was determined as 3.28 µM; in [8], 3.48 µM; in [9], 3.36 µM; in assay [10], 3.17 µM.

`CC(C)CCC[C@@H](C)[C@H]1CC[C@H]2[C@@H]3CC=C4C[C@@H](C(C(=O)O)C(=O)O)CC[C@]4(C)[C@H]3CC[C@]12C`: the GI50 is 0.153 µM in assay [1]; 0.101 µM in assay [2]; 0.252 µM in [3]; 0.192 µM in [4]; 0.143 µM in assay [5]; 0.307 µM in assay [6]. For the same compound, the GI50 in [7] is 0.139 µM; in assay [8], 0.386 µM; in assay [9], 0.117 µM; in [10], 0.135 µM. Further, the total growth inhibition concentration (TGI) stood at 0.527 µM in assay [1]; 0.798 µM in assay [2]; 1.48 µM in [3]; 0.662 µM in assay [4]; 0.469 µM in [5]; 0.904 µM in assay [6]. Also, the TGI amounted to 0.468 µM in assay [7], 5.37 µM in assay [8], 0.292 µM in [9] and 1.63 µM in [10].

Turning to `O=C1C(Cl)=C(Nc2cccc(Cl)c2)C(=O)N1Cc1ccc(Cl)cc1Cl`, the GI50 in [1] was 0.265 µM; in assay [2], 0.685 µM; in assay [3], 7.66 µM; in assay [4], 0.181 µM; in assay [5], 1.67 µM; in [6], 2.55 µM. Also, the GI50 was less than 0.0316 µM in assay [7], 1.24 µM in assay [8] and 7.89 µM in assay [9]. Further, the TGI is 5.86 µM in assay [1]; 7.57 µM in assay [2]; more than 100 µM in assay [3]; 3.83 µM in assay [4]; 14.2 µM in assay [5]; 20.9 µM in assay [6]. Moreover, the concentration for total growth inhibition (TGI) in [7] worked out at 11.5 µM; in assay [8], 41.5 µM; in [9], 39.2 µM; in [10], 8.9 µM.

With `C#Cc1ccc(-n2c(/C=C/c3ccc(C(F)(F)F)cc3)nc3ncccc3c2=O)cc1`, the GI50 in assay [1] is 1.65 µM; in [2] it was 1.63 µM; in assay [3], 2.07 µM; in [4], 1.79 µM; in assay [5], 1.78 µM; in assay [6], 1.32 µM. The GI50 is 1.89 µM in assay [7], 2.49 µM in assay [8], 1.79 µM in [9] and 2 µM in assay [10]. Moreover, the TGI worked out at 3.08 µM in assay [1]; 3.02 µM in assay [2]; 6.07 µM in [3]; 3.79 µM in assay [4]; 3.26 µM in assay [5]; 3.44 µM in [6]. Besides, the total growth inhibition concentration (TGI) in assay [7] worked out at 4.29 µM; in [8], 10.2 µM; in assay [9], 3.44 µM; in assay [10], 8.08 µM.
